The term IC50 denotes the concentration at which inhibition is half-maximal.

In brackets after ≈: the same amount, converted by molar mass. Like-named read-outs stand apart in the source and are kept apart here.

18 molecules from patent US4294958A, “Water-soluble salts of trimethylammonium derivatives of polyene macrolide antibiotics and the preparation thereof” (Politechnika Gdanska, priority 1978, dated 1981) can be followed below.

Format in all cases: cell-based
Data set [1] has as its system hemoglobin. As to the kind of experiment: haemolytic activity (hemoglobin, determined spectrophotometrically). An excerpt:
(§1) EH50 means the concentration of the substance causing in conditions
(§2) 50% of hemoglobin determined spectrophotometrically at λ = 550 nm.

The test system of data set [2] is Saccharomyces cerevisiae cells. As to the kind of experiment: antifungal activity: inhibition of growth of Saccharomyces cerevisiae in liquid standard medium. How it is done: IC50 means the concentration of the substance causing 50% inhibitio
of the growth of Saccharomyces cerevisiae cells in liquid standard medium
determined spectrophotometrically at λ = 600 nm after 24 hours

Data set [3] can be described thus: haemolytic activity (hemoglobin, determined spectrophotometrically).
Source text: as §1, §2

Setting [4] is: in vitro haemolysis, 50% of hemoglobin, λ = 550 nm.
Setting [5] is: 50% inhibition of growth of Saccharomyces cerevisiae, liquid standard medium, λ = 600 nm, 24 hours, 28° C.
Setting [6] is: in vitro haemolysis, 50% of hemoglobin, λ = 550 nm, read-out: EH50 (the source's name).
Where [7] appears, read: 50% inhibition of growth of Saccharomyces cerevisiae, liquid standard medium, λ = 600 nm, 24 hours, 28° C., read-out: IC50.

Consider “N,N,N-trimethylnystatin methyl ester [DMS-Nystatin]”, for which the EH50 in data set [1] (setting [4]) was 100 µg/mL. Further, the IC50 in data set [2] (setting [5]) came to 0.25 µg/mL.

candicidin came in with an EH50 in data set [1] (setting [4]) of 2.5 µg/mL. For the same molecule, in data set [2] (setting [5]), the IC50 was 0.005 µg/mL.

Regarding levorin, the EH50 in data set [1] (setting [4]) was determined as 2.5 µg/mL. The same molecule came in with an IC50 in data set [2] (setting [5]) of 0.007 µg/mL.

The molecule `C[C@@H]1[C@H](O)[C@@H](C)/C=C/C=C/C=C/C=C/C=C/C=C/C=C/[C@H](O[C@@H]2O[C@H](C)[C@@H](O)[C@H](N)[C@@H]2O)C[C@@H]2O[C@](O)(C[C@@H](O)[C@H](O)CC[C@@H](O)CC(=O)C[C@@H](O)CC(=O)O[C@H]1C)C[C@H](O)[C@H]2C(=O)O` [Mycoheptin, mycoheptin] returned an EH50 in data set [1] (setting [4]) of 15 µg/mL. In addition, the IC50 in data set [2] (setting [5]) is 0.05 µg/mL (≈ 0.0542 µM).

“N,N,N-dimethyl-mycoheptin methyl ester [DMS-Mycoheptin]” had an EH50 in data set [1] (setting [4]) of 65 µg/mL. In addition, in data set [2] (setting [5]), the IC50 stood at 0.2 µg/mL.

In data set [1] (setting [4]), aureofacin gave an EH50 of 0.35 µg/mL. Besides, the IC50 in data set [2] (setting [5]) turned out to be 0.005 µg/mL.

In turn, “N,N,N-trimethylcandidin methyl ester [DMS-Candidin]” registered an EH50 in data set [1] (setting [4]) of 70 µg/mL. Also, the IC50 in data set [2] (setting [5]) turned out to be 0.15 µg/mL.

In data set [1], “N,N,N-trimethylpolifungin methyl ester [DMS-Polifungin]” gave an EH50 of 120 µg/mL. The molecule further had an IC50 in data set [2] (setting [5]) of 0.15 µg/mL.

The molecule polyfungin [Polifungin] came in with an EH50 in data set [1] of 20 µg/mL. Besides, in data set [2] (setting [5]), the IC50 is 0.08 µg/mL.

In the case of `COC(=O)[C@H]1[C@@H]2C[C@@H](O[C@@H]3O[C@H](C)[C@@H](O)[C@H]([N+](C)(C)C)[C@@H]3O)/C=C/C=C/C=C/C=C/C=C/C=C/C=C/[C@H](C)[C@@H](O)[C@@H](C)[C@H](C)OC(=O)C[C@H](O)C[C@H](O)CC[C@@H](O)[C@H](O)C[C@H](O)C[C@](O)(C[C@@H]1O)O2` [DMS-Amphotericin B, N,N,N-trimethylamphotericin B methyl ester], the HC50 in data set [3] (setting [6]) is 5 µg/mL. Also, the IC50 in data set [2] (setting [7]) is 0.08 µg/mL.

In data set [1] (setting [4]), “N,N,N-trimethylrimocidin methyl ester [DMS-Rimocidin]” came in with an EH50 of 50 µg/mL. The same molecule registered an IC50 in data set [2] (setting [5]) of 2.5 µg/mL.

trichomycin: the EH50 in data set [1] (setting [4]) turned out to be 3 µg/mL. In addition, the half-inhibitory concentration (IC50) in data set [2] (setting [5]) is 0.005 µg/mL.

In turn, `CCC[C@@H]1C/C=C/C=C/C=C/C=C/[C@H](O[C@@H]2O[C@H](C)[C@@H](O)[C@H](N)[C@@H]2O)C[C@@H]2O[C@](O)(C[C@@H](O)CCCC(=O)C[C@@H](O)[C@H](CC)C(=O)O1)C[C@H](O)[C@H]2C(=O)O` [Rimocidin, rimocidin] registered an EH50 in data set [1] (setting [4]) of 30 µg/mL. Besides, the IC50 in data set [2] (setting [5]) is 1.5 µg/mL (≈ 1.95 µM).

`C[C@@H]1[C@H](O)[C@@H](C)/C=C/C=C/CC/C=C/C=C/C=C/C=C/C(O[C@H]2O[C@H](C)[C@@H](O)[C@H](N)[C@@H]2O)CC2O[C@](O)(CC(O)C(O)CCC(O)CC(O)CC(O)CC(=O)O[C@H]1C)CC(O)C2C(=O)O` (stereo partly drawn) [Nystatin, nystatin] registered an EH50 in data set [1] (setting [4]) of 50 µg/mL. Also, the IC50 in data set [2] (setting [5]) was 0.1 µg/mL (≈ 0.108 µM).

Take `COc1cc2c(c3oc(-c4ccccc4)cc(=O)c13)C=CC(C)(C)O2` [Candidin, candidin]: the HC50 in data set [3] (setting [6]) was determined as 20 µg/mL. Further, the IC50 in data set [2] (setting [7]) was found to be 0.054 µg/mL (≈ 0.161 µM).

For `C[C@@H]1C/C=C/C=C/C=C/C=C/[C@H](O[C@@H]2O[C@H](C)[C@@H](O)[C@H](N)[C@@H]2O)C[C@@H]2O[C@](O)(C[C@@H](O)C[C@H]3O[C@@H]3/C=C/C(=O)O1)C[C@H](O)[C@H]2C(=O)O` [Pimaricin, pimaricin], the HC50 in data set [3] is 100 µg/mL. The IC50 in data set [2] (setting [7]) worked out at 1 µg/mL (≈ 1.5 µM).

With `C[C@@H]1[C@H](O)[C@@H](C)/C=C/C=C/C=C/C=C/C=C/C=C/C=C/[C@H](O[C@@H]2O[C@H](C)[C@@H](O)[C@H](N)[C@@H]2O)C[C@@H]2O[C@](O)(C[C@@H](O)C[C@@H](O)[C@H](O)CC[C@@H](O)C[C@@H](O)CC(=O)O[C@H]1C)C[C@H](O)[C@H]2C(=O)O` [Amphotericin B, amphotericin B], in data set [3] (setting [6]), the HC50 was determined as 5 µg/mL. This molecule had an IC50 in data set [2] (Saccharomyces cerevisiae, 24 h) of 0.03 µg/mL (≈ 0.0325 µM).

perimycin gave an EH50 in data set [1] (setting [4]) of 5 µg/mL. In data set [2] (setting [5]), this molecule gave an IC50 of 0.002 µg/mL.
